Positions count from the first letter of the chain named. Names may count otherwise.
Tests used:
DNA = details: cited from earlier work
[1] = test system: bacteria lacking endogenous Rep helicase; assay: assay of sensitivity to nalidixic acid (Rep helicase activity); format: cell-based, E. coli; details: 2.5 ng/μl nalidixic acid; rep- cells with helper plasmid
Protocol: The Rep helicase activity of the T5 DNA polymerase-Rep helicase fusion was measured by its ability to alleviate growth retardation caused by nalidixic acid in a strain lacking endogenous Rep helicase (Henderson et al., PLOS ONE, 10 (5): e0128092, (2015)). Bacteria normally tolerate low levels of nalidixic acid, but bacteria lacking endogenous Rep helicase grow more slowly because nalidixic acid inhibits DNA gyrase and topoisomerase.
Assay of sensitivity to nalidixic acid was used(Henderson et al., PLOS ONE, 10 (5): e0128092, (2015)). Three cell lines were prepared, namely TADR cells modified to have intact chromosomal rep, TADR cells (rep-) and TADR cells (rep-) transformed with helper plasmid (expressing the fusion protein). A Rep gene knockout mutation was P1-transduced from Keio-collection(Baba et al., Mol Syst Biol, 2 2006.0008-2006.0008, (2006)) into the host cell for using standard technique of molecular cloning(Green, (2012)). The helper plasmid was transformed into this rep-cell and selected on LB agar plate supplemented with 50 ng/μl ampicillin. From this cell line together with other two—the host cell for, its rep-derivative, single colonies were inoculated into liquid LB culture (ampicillin was added to cultures of the first cell line). […]

[2] = test system: kanR* gene on target plasmid; assay: kanR* reversion assay (frequency of kanamycin-resistant colonies); format: cell-based, E. coli
Protocol: Three DNA elements were added to E. coli to create a targeted error-prone artificial replisome: a constitutively-expressed, chromosomal CisA gene, a target vector plasmid and a helper vector plasmid (FIG. 1A-1B and FIG. 5). The target vector contained the gene(s) of interest targeted for mutagenesis between the CisA initiation and termination sequences. To quantify the increase in mutagenesis, mutagenesis was targeted to the gene for a kanamycin resistance protein (aminoglycoside phosphotransferase (3)-IIIa). This gene, named kanR*, carried a single nucleotide substitution (A785C), which encodes an E262A amino acid substitution that inactivates the kanamycin resistance (Thompson et al., J Biol Chem, 274 (43): 30697-30706, (1999)). Mutations that reverse this substitution will restore gene function, allowing the cells to grow in the presence of kanamycin. Resistant colony-forming unit (CFU) per pl of full density culture (frequency of resistant CFU per cell plated) is used as a readout for mutagenic capacity. The helper plasmid contains a gene encoding the fusion of the error-prone T5 DNA polymerase to the Rep helicase under the control of a T7 promoter. (The host cell also contains a chromosomal gene to express the T7 RNA polymerase and a deletion of the chromosomal Rep gene to eliminate potential competition with the fusion protein.)
The DNA polymerase activity of the T5 DNA polymerase-Rep helicase fusion protein was measured by its capacity to mutate the target, kanR* and restore kanamycin resistance. The bacteria, in this Example, contained all three elements of the targeted error-prone artificial replisome: a constitutively-expressed, chromosomal CisA gene, the target plasmid carrying the kanR* gene flanked by the initiation and termination sequences, and the helper plasmid expressing the T5 DNA polymerase-Rep helicase fusion protein. These cells were picked from a transformation plate, propagated in liquid for ten generations to accumulate mutations and then plated onto kanamycin-containing media for selection.
KanR* reversion assay was used. Three transformations were carried out, all into the host cell for TADR, as shown in FIG. 2C: the helper plasmid with the wildtype T5 polymerase co-transformed with the target plasmid; the helper plasmid with the error-prone T5 polymerase mutant, with the target plasmid without the recognition and termination sequences; the helper plasmid with the error-prone T5 polymerase mutant, with the target plasmid. Transformant colonies were selected on LB agar plates supplemented with 15 ng/μl chloramphenicol and 50 ng/μl ampicillin and inoculated to a liquid LB cultures with chloramphenicol and ampicillin. After overnight growth, 50 μl culture from each sample was plated on LB plates supplemented with 30 ng/μl kanamycin. After 16 h incubation at 37° C., colonies were counted.

primed DNA substrate [3] = details: cited from earlier work
primed DNA substrate [4] = assay: association of DNA polymerase with primed DNA substrate; format: binding; details: local effective concentration of polymerase 0.2-0.6 mM; kon of T7 assumed
Protocol: The artificial replisome must simultaneously unwind DNA and copy the exposed strand to prevent degradation of the exposed ssDNA, which causes genetic instability. In addition, DNA synthesis must avoid premature termination within the target region. Connecting Rep helicase and T5 DNA polymerase with a flexible linker increases the local effective concentrations to an estimated 0.2-0.6 mM(Li et al., Protein Sci, 27 (9): 1600-1610, (2018)) in order to achieve both of these goals. The CisA protein recruits Rep helicase to the target region and stabilizes it. Rep helicase unwinds DNA at about 144 base-pairs/s (Arslan et al., Science (New York, N.Y.), 348 (6232): 344-347, (2015)), so DNA synthesis must initiate at least that fast to proceed simultaneously. The bimolecular association rate constant of T7 DNA polymerase (kon) for primed DNA substrate is 3.6×10^7M^−1s^−1 (Luo et al., Proceedings of the National Academy of Sciences, 104 (31): 12610-12615, (2007)) and it was assumed T5 DNA polymerase associates at a similar rate. If the local effective concentration of polymerase is 0.2-0.6 mM, then the rate of association is 7200-22,000 s^−1, which far exceeds the rate of unwinding. […]

[5] = six-His tag linked to C-terminus; cited from earlier work

Molecule: E. coli PolA: E. coli DNA polymerase I, slower than Rep helicase
- speed of DNA unwinding or DNA synthesis (DNA): ~15 base-pairs/s

Molecule: T5 DNA polymerase-Rep helicase fusion protein: T5 DNA polymerase (D164A, E166A, A593R) linked by 81-amino acid linker to Rep helicase; SEQ ID NO:22
- effect on nalidixic acid inhibition of growth [1]: partially alleviated
- frequency of kanamycin-resistant colonies, fold over control whose target plasmid was without initiation sequence ([2]; LB): 4.2 fold
- frequency of kanamycin-resistant colonies, fold increase over control with wildtype T5 DNA polymerase ([2]; LB, wildtype Rep, T5 D164A, E166A, A593R): 128 fold
- increase in mutation rate from engineered 5′ UTR ([2]; stem-loop designed into 5′ UTR of the fusion gene): up to 150 fold

Molecule: fusion containing RepΔC33: fusion protein in which the 33 C-terminal amino acids of Rep helicase were deleted; SEQ ID NO:10
- frequency of kanamycin-resistant colonies, fold over control whose target plasmid was without initiation sequence ([2]; LB): 67 fold
- increase in selectivity from RepΔC33 versus wildtype Rep ([2]; LB): 16 fold

B1: T7 DNA polymerase: bacteriophage T7 DNA polymerase, used in the initial failed TADR (protein, UniProt P00581 1-704, looked up)
DNA-directed DNA polymerase: MIVSDIEANALLESVTKFHCGVIYDYSTAEYVSYRPSDFGAYLDALEAEVARGGLIVFHNGHKYDVPALTKLAKLQLNREFHLPRENCIDTLVLSRLIHSNLKDTDMGLLRSGKLPGKRFGSHALEAWGYRLGEMKGEYKDDFKRMLEEQGEEYVDGMEWWNFNEEMMDYNVQDVVVTKALLEKLLSDKHYFPPEIDFTDVGYTTFWSESLEAVDIEHRAAWLLAKQERNGFPFDTKAIEELYVELAARRSELLRKLTETFGSWYQPKGGTEMFCHPRTGKPLPKYPRIKTPKVGGIFKKPKNKAQREGREPCELDTREYVAGAPYTPVEHVVFNPSSRDHIQKKLQEAGWVPTKYTDKGAPVVDDEVLEGVRVDDPEKQAAIDLIKEYLMIQKRIGQSAEGDKAWLRYVAEDGKIHGSVNPNGAVTGRATHAFPNLAQIPGVRSPYGEQCRAAFGAEHHLDGITGKPWVQAGIDASGLELRCLAHFMARFDNGEYAHEILNGDIHTKNQIAAELPTRDNAKTFIYGFLYGAGDEKIGQIVGAGKERGKELKKKFLENTPAIAALRESIQQTLVESSQWVAGEQQVKWKRRWIKGLDGRKVHVRSPHAALNTLLQSAGALICKLWIIKTEEMLVEKGLKHGWDGDFAYMAWVHDEIQVGCRTEEIAQVVIETAQEAMRWVGDHWNFRCLLDTEGKMGPNWAICH
- targeted mutagenesis ([2]; TADR implemented with T7 DNA polymerase): no targeted mutagenesis was seen
- bimolecular association rate constant (kon) (primed DNA substrate [3]): 3.6e+07 M⁻¹ s⁻¹

B2: I308V: self-evolved variant of error-prone T5 DNA polymerase with single I308V substitution; SEQ ID NO:3 (protein)
chain: MKIAVVDKALNNTRYDKHFQLYGEEVDVFHMCNEKLSGRLLKKHITIGTPENPFDPNDYDFVILVGAEPFLYFAGKKGIGDYTGKRVEYNGYANWIASISPAQLHFKPEMKPVFDATVENIHDIINGREKIAKAGDYRPITDPDEAEEYIKMVYNMVIGPVAFASATSALYCRDGYLLGVSISHQEYQGVYIDSDCLTEVAVYYLQKILDSENHTIVFHNLKFDMHFYKYHLGLTFDKAHKERRLHDTMLQHYVLDERRGTHGLKSLAMKYTDMGDYDFELDKFKDDYCKAHKIKKEDFTYDLIPFDVMWPYAAKDTDATIRLHNFFLPKIEKNEKLCSLYYDVLMPGCVFLQRVEDRGVPISIDRLKEAQYQLTHNLNKAREKLYTYPEVKQLEQDQNEAFNPNSVKQLRVLLFDYVGLTPTGKLTDTGADSTDAEALNELATQHPIAKTLLEIRKLTKLISTYVEKILLSIDADGCIRTGFHEHMTTSGRLSSSGKLNLQQLPRDESIIKGCVVAPPGYRVIAWDLTTAEVYYAAVLSGDRNMQQVFINMRNEPDKYPDFHSNIAHMVFKLQCEPRDVKKLFPALRQAAKRITFGILYGSGPAKVAHSVNEALLEQAAKTGEPFVECTVADAKEYIETYFGQFPQLKRWIDKCHDQIKNHGFIYSHFGRKRRLHNIHSEDRGVQGEEIRSGFNAIIQSASSDSLLLGAVDADNEIISLGLEQEMKIVMLVHDSVVAIVREDLIDQYNEILIRNIQKDRGISIPGCPIGIDSDSEAGGSRDYSCGKMKKQHPSIACIDDDEYTRYVKGVLLDAEFEYKKLAAMDKEHPDHSKYKDDKFIAVCKDLDNVKRILGA
- increase in mutation rate (kanamycin-resistant CFU) from self-evolution / I308V ([2]; versus ancestor error-prone T5 DNA polymerase): 3.2 fold

B3: T5 DNA polymerase: DNA polymerase of bacteriophage T5, NCBI YP_006950.1, SEQ ID NO:1 (protein)
chain: B2 chain with A164D, A166E, V308I, R593A
modifications: Escherichia virus T5
- rate of association (primed DNA substrate [4]): 7200-22,000 s^−1
- effect of six-His tag on polymerase activity [5]: did not interfere with polymerase activity

Source: patent publication US20250333714A1, “ARTIFICIAL DNA REPLISOME AND METHODS OF USE THEREOF” (Regents of the University of Minnesota, priority 2021, published 2025)
